From US20230295162A1 (EÖTVÖS LORÁND TUDOMÁNYEGYETEM, priority 2020, published 2023)

Assays:
[1] = system: EBC-1 cell line; test: Additional in vitro IC50 tests (Table 3); format: cell-based; settings: Homo sapiens
Experimental: (§1) Cell lines were maintained according to the instructions provided by ATCC (https://www.lgcstandards-atcc.org/) in a 5% CO2 humidified incubator maintained at 37° C. temperature. Effects of compounds on cell viability were measured via CellTiter-Glo® luminescent cell viability assay (Promega, Madison, WI, USA) Cells were plated at 1000 cells/well onto a flat-bottomed, white 96 well plate (BRANDplates, cat. no.: 781965). […] After the treatment, medium was removed and CellTiter-Glo® reagent was added. The luminescence signal was recorded using a microplate reader (BioTek Synergy 2 Multi-Mode Reader, BioTek, Winooski, VT, USA).
(§2) Cell viability data (% of untreated control cells) was evaluated with Microsoft Excel. Dose-response curves (using a non-linear regression model, log (inhibitor) vs response, variable slope) were generated and IC50 values were determined using Graph Pad Prism 5.02 software (GraphPad Software, San Diego, CA, USA).

[2] = system: H2228 cell line; test: Additional in vitro IC50 tests (Table 3); format: cell-based; settings: Homo sapiens, NCI-H2228
Experimental: as §1, §2

[3] = system: SCC-25 cell line; test: Additional in vitro IC50 tests (Table 3); format: cell-based; settings: Homo sapiens
Experimental: as §1, §2

[4] = system: Detroit 562 cell line; test: Additional in vitro IC50 tests (Table 3); format: cell-based; settings: Homo sapiens
Experimental: as §1, §2

[5] = system: Fadu cell line; test: Additional in vitro IC50 tests (Table 3); format: cell-based; settings: Homo sapiens
Experimental: as §1, §2

[6] = system: Panc1 pancreatic cancer cell line; test: CellTiter-Glo IC50 (Example 19); format: cell-based; settings: Homo sapiens, PANC-1, 72 h
Experimental: (§3) Some representative imipridones and ONC212 as reference were further tested on the following human malignant cell lines: PC3 and LNCap (prostate carcinoma); BxPC3, MiaPaCa2 and Panc1 (pancreatic cancer); A549, HCC827, H1993 and H520 (lung carcinoma); MDA-MB-453 and MDA-MB-231 (breast cancer) (see Table 2 and FIGS. 1-11).
as §1, §2

[7] = system: PANC-1 (human pancreatic carcinoma) cells; test: Impedance-based viability assay (xCELLigence SP), long treatment; format: cell-based; settings: 72 h, read-out: cytotoxicity expressed in IC50, PANC-1
Source text: (Gibco®/Invitrogen Corporation, New York, NY, USA).
Data obtained from each experiment represent mathematical averages.

[8] = system: EBC-1 lung cancer cell line; test: High-throughput screening, CellTiter-Glo cell viability assay at 100 nM; format: cell-based, human; settings: Homo sapiens, EBC-1, HTS, compounds at 100 nM, 72 h, read-out: cytotoxicity expressed in IC50, EBC-1 (results of High throughput screening)
[9] = system: H2228 lung cancer cell line; test: as above; format: cell-based, human; settings: Homo sapiens, NCI-H2228, HTS, compounds at 100 nM, 72 h, read-out: cytotoxicity expressed in IC50, H2228 (results of High throughput screening)
[10] = system: A-431 (human squamous carcinoma) cells; test: Short term cytotoxicity, MTT assay; format: cell-based; settings: 1 h treatment then 72 h culture, read-out: cytotoxicity expressed in IC50, A-431
Experimental: (§4) For the short term cytotoxicity studies the A-431 (human squamous carcinoma) and U-87 (human primary glioblastoma) cells were cultured in RPMI-1640 medium supplemented with 10% FCS (fetal calf serum, Sigma Ltd.), 2 mM L-glutamine, and […] gentamicin. Cell cultures were maintained at 37° C. in a humidified atmosphere with 5% CO2. The cells were grown to confluency and were distributed into 96-well plate with initial cell number of 5.0×10^3 per well. After 24 h incubation at 37° C., the cells were treated with the compounds in 200 μL final volume containing 1.0 v/v % DMSO. The cells were incubated with the compounds at 10^−4-10^2 μM concentration range for 1 h. Control cells were treated with serum free medium (RPMI-1640) only or with DMSO (c=1.0 v/v %) at 37° C. for 1 h. After incubation the cells were washed twice with serum free (RPMI-1640) medium. To determine the in vitro cytostatic effect, the cells were cultured for a further 72 h in 10% serum containing medium. MTT-solution ([…], 2 mg/mL, final concentration: 0.37 mg/mL) was added to each well. The respiratory chain [26, 27] and other electron transport systems reduce MTT and thereby form non-water-soluble violet formazane crystals within the cell. […] After 4 h of incubation the cells were centrifuged for 5 min (900 g) and the supernatant was removed. The obtained formazane crystals were dissolved in DMSO ([…]) and optical density (OD) of the samples was measured at λ=540 and 620 nm, respectively, using ELISA Reader (iEMS Reader, Labsystems, Finland). OD620 values were subtracted from OD540 values. The percent of cytostasis was calculated by using the following equation: Cytostatic effect (%)=[1−(ODtreated/ODcontrol)]×100 Values ODtreated and ODcontrol correspond to the optical densities of the treated and the control cells, respectively. In each case two independent experiments were carried out with 4 parallel measurements. […] The curves were defined using Microcal™ Origin1 (version 7.5) software: cytostasis was plotted as a function of concentration, fitted to a sigmoidal curve, and based on this curve, the half maximal inhibitory concentration (IC50) value was determined.

[11] = system: U-87 (human primary glioblastoma) cells; test: Short term cytotoxicity, MTT assay; format: cell-based; settings: 1 h treatment then 72 h culture, read-out: cytotoxicity expressed in IC50, U-87
Experimental: as §4

[12] = system: COLO-205 (human colorectal adenocarcinoma) cells; test: Colorimetric alamarBlue assay, long treatment; settings: COLO 205, 72 h, read-out: cytotoxicity expressed in IC50, COLO-205
[13] = system: A2058 (human metastatic melanoma) cells; test: Colorimetric alamarBlue assay, long treatment; settings: Homo sapiens, A2058, 72 h, read-out: cytotoxicity expressed in IC50, A-2058
[14] = system: A549 lung carcinoma cell line; test: CellTiter-Glo IC50 (Example 19); format: cell-based; settings: Homo sapiens, 72 h
Experimental: as §3, §1, §2

[15] = system: HCC827 lung carcinoma cell line; test: CellTiter-Glo IC50 (Example 19); format: cell-based; settings: Homo sapiens, 72 h
Experimental: as §3, §1, §2

[16] = system: H1993 lung carcinoma cell line; test: CellTiter-Glo IC50 (Example 19); format: cell-based; settings: Homo sapiens, NCI-H1993, 72 h
Experimental: as §3, §1, §2

[17] = system: BxPC3 pancreatic cancer cell line; test: CellTiter-Glo IC50 (Example 19); format: cell-based; settings: Homo sapiens, BXPC-3, 72 h
Experimental: as §3, §1, §2

[18] = system: MiaPaCa2 pancreatic cancer cell line; test: CellTiter-Glo IC50 (Example 19); format: cell-based; settings: Homo sapiens, MIA PaCa-2, 72 h
Experimental: as §3, §1, §2

[19] = system: PC3 human prostate cancer cell line; test: CellTiter-Glo IC50 (Example 19); format: cell-based; settings: 72 h
Experimental: as §3, §1, §2

[20] = system: H520 lung carcinoma cell line; test: CellTiter-Glo IC50 (Example 19); format: cell-based; settings: Homo sapiens, NCI-H520, 72 h
Experimental: as §3, §1, §2

[21] = system: LNCap human prostate cancer cell line; test: CellTiter-Glo IC50 (Example 19); format: cell-based; settings: 72 h
Experimental: as §3, §1, §2

[22] = system: MDA-MB-453 breast cancer cell line; test: CellTiter-Glo IC50 (Table 3); format: cell-based; settings: Homo sapiens
Experimental: as §3, §1, §2

[23] = system: MDA-MB-231 breast cancer cell line; test: CellTiter-Glo IC50 (Table 3); format: cell-based; settings: Homo sapiens
Experimental: as §3, §1, §2

[24] = system: representative cell lines; test: Cytotoxicity on representative cell lines (summary statement); format: cell-based; settings: Homo sapiens; summary range, ca.

Structure (SMILES) | IC50 [7] [µM] | IC50 [8] [µM] | IC50 [9] [µM] | IC50 [10] [µM] | IC50 [11] [µM] | IC50 [12] [µM] | IC50 [13] [µM] | other results
O=C1C2=C(CCN(Cc3cc(F)cc(F)c3)C2)N2CCN=C2N1C(CO)c1ccc(Cl)cc1 (racemic) [I/128] |  |  |  |  |  |  |  | IC50 [1]: 0.013 µM; IC50 [2]: 0.012 µM; IC50 [3]: 0.019 µM; IC50 [4]: 0.005 µM; IC50 [5]: 0.012 µM; melting point: 86 °C; IC50 [6]: 0.01 µM
O=C1C2=C(CCN(Cc3ccccc3)C2)N2CCN=C2N1Cc1ccc(F)cc1 [I/5] | 0.25 | > 0.1 | > 0.1 | 3.55 | > 25 | 0.247 | 0.25 | 
O=C1C2=C(CCN(Cc3ccccc3)C2)N2CCN=C2N1Cc1cccc(F)c1 [I/8] | 1.42 | > 0.1 | > 0.1 | 7.29 | > 25 | 4.96 | 1.73 | 
O=C1C2=C(CCN(Cc3ccccc3)C2)N2CCN=C2N1Cc1cc(F)c(F)c(F)c1 [I/9] | 2.22 |  |  | 1.39 | 6.02 | > 10 | > 10 | 
O=C1C2=C(CCN(Cc3ccccc3F)C2)N2CCN=C2N1Cc1ccc(C(F)(F)F)c(F)c1 [I/26] | 0.92 | > 0.1 | > 0.1 | 3.63 | 3.51 | > 10 | > 10 | 
O=C1C2=C(CCN(Cc3ccc(C(F)(F)F)cc3)C2)N2CCN=C2N1Cc1ccc(C(F)(F)F)c(F)c1 [I/27] | 25 | > 0.1 | > 0.1 | 8.95 | 5.99 | 25 | 12.8 | 
O=C1C2=C(CCN(Cc3ccc(F)cc3)C2)N2CCN=C2N1Cc1ccc(C(F)(F)F)c(F)c1 [I/28] | 0.96 | > 0.1 | > 0.1 | 2.66 | 17.6 | 3.27 | > 10 | 
O=C1C2=C(CCN(Cc3cccc(F)c3)C2)N2CCN=C2N1Cc1ccc(C(F)(F)F)c(F)c1 [I/31] | 0.0767 | < 0.1 | < 0.1 | < 0.2 | > 25 |  |  | 
O=C1C2=C(CCN(Cc3cc(F)cc(F)c3)C2)N2CCN=C2N1Cc1ccc(Br)cc1 [I/39, 4-(4-Bromobenzyl)-7-(3,5-difluorobenzyl)-2,4,6,7,8,9-hexahydroimidazo[1,2-a]pyrido[3,4-e]pyrimidin-5(1H)-one] | 0.003 | < 0.1 | < 0.1 |  |  |  |  | IC50 [1]: 0.004 µM; IC50 [2]: 0.006 µM; IC50 [3]: 0.007 µM; IC50 [4]: 0.003 µM; IC50 [5]: 0.005 µM; melting point: 173.5 °C; IC50 [14]: 0.004 µM; IC50 [15]: 0.004 µM; IC50 [16]: 0.003 µM; IC50 [17]: 0.003 µM; IC50 [18]: 0.004 µM; IC50 [19]: 0.002 µM; IC50 [20]: 0.003 µM; IC50 [6]: 0.004 µM; IC50 [21]: 0.002 µM; IC50 [22]: < 0.001 µM; IC50 [23]: < 0.001 µM; IC50 [24]: 0.003 to 0.008 µM
O=C1C2=C(CCN(Cc3cccc(F)c3)C2)N2CCN=C2N1Cc1ccc(I)cc1 [I/46] | 0.025 | < 0.1 | ~0.1 | 6.16 | 25 |  | > 10 | 
NCc1cccc(CN2C(=O)C3=C(CCN(Cc4cccc(F)c4)C3)N3CCN=C23)c1 [I/60] | 0.43 | > 0.1 | > 0.1 | < 0.2 | 0.416 | > 10 | > 10 | 
NCc1cccc(CN2C(=O)C3=C(CCN(Cc4cc(F)cc(F)c4)C3)N3CCN=C23)c1 [I/61, 4-(3-(Aminomethyl)benzyl)-7-(3,5-difluorobenzyl)-2,4,6,7,8,9-hexahydroimidazo[1,2-a]pyrido[3,4-e]pyrimidin-5(1H)-one] |  |  |  |  |  |  |  | IC50 [1]: 0.029 µM; IC50 [2]: 0.104 µM; IC50 [3]: 0.089 µM; IC50 [4]: 0.084 µM; IC50 [5]: 0.022 µM; melting point: 129.5 °C; IC50 [6]: 0.3 µM
